This note sets out measurements from US20080058330A1, “Compounds and Combinations Thereof for Inhibiting Beta-Amyloid Production and Methods of Use Thereof” (Roskamp Research LLC, priority 2006, published 2008).

By melting point is commonly meant the temperature of the solid-liquid transition.

As to `C=CCOC(=O)C1=C(C)NC(C)=C(C(=O)OCC=C)C1c1ccccc1Cl` [Example 16, Diallyl 4-(2-chlorophenyl)-1,4-dihydro-2,6-dimethylpyridine-3,5-dicarboxylate], the melting point was in the range of 98 to 99 °C. Consider `COCC1=C(C(=O)OC)C(c2ccccc2Cl)C(C(=O)OC)=C(COC)N1` [Example 17, Dimethyl 4-(2-chlorophenyl)-1,4-dihydro-2,6-bis(methoxymethyl)pyridine-3,5-dicarboxylate], for which the melting point lay within 137 to 138 °C. The value for `CCOC(=O)C1=C(C)NC(C)=C(C(=O)OCC)C1c1ccccc1I` [Example 18, Diethyl 1,4-dihydro-4-(2-iodophenyl)-2,6-dimethylpyridine-3,5-dicarboxylate] was 173 to 174.5 °C.

`COC(=O)C1=C(C)NC(C)=C(C(=O)OC)C1c1ccccc1Br` [Example 19, Dimethyl 4-(2-bromophenyl)-1,4-dihydro-2,6-dimethylpyridine-3,5-dicarboxylate]: the melting point was 164 to 165 °C. Next, `CC1=C(C(=O)OC(C)(C)C)C(c2cccc(Cl)c2)C(C(=O)OC(C)(C)C)=C(C)N1` [Example 21, Di-tert-butyl 4-(3-chlorophenyl)-1,4-dihydro-2,6-dimethylpyridine-3,5-dicarboxylate]: 189.5 to 190.5 °C. The molecule `CCOC(=O)C1=C(C)NC(C)=C(C(=O)OCC)C1c1ccc(Cl)cc1` [Example 22, Diethyl 4-(4-chlorophenyl)-1,4-dihydro-2,6-dimethylpyridine-3,5-dicarboxylate] came in with a melting point of 151 to 152 °C. Next, `CC1=C(C(=O)OC(C)(C)C)C(c2ccc(Cl)cc2)C(C(=O)OC(C)(C)C)=C(C)N1` [Example 23, Di-tert-butyl 4-(4-chlorophenyl)-1,4-dihydro-2,6-dimethylpyridine-3,5-dicarboxylate]: 191.5 to 192.5 °C. The value for `CCOC(=O)C1=C(C)NC(C)=C(C(=O)OCC)C1c1cccc(Br)c1` [Example 24, Diethyl 4-(3-bromophenyl)-1,4-dihydro-2,6-dimethylpyridine-3,5-dicarboxylate] was 125 to 126 °C. Next, `CC1=C(C(=O)OC(C)(C)C)C(c2cccc(Br)c2)C(C(=O)OC(C)(C)C)=C(C)N1` [Example 25, Di-tert-butyl 4-(3-bromophenyl)-1,4-dihydro-2,6-dimethylpyridine-3,5-dicarboxylate]: 195 to 196 °C; `CC1=C(C(=O)OC(C)(C)C)C(c2ccc(Br)cc2)C(C(=O)OC(C)(C)C)=C(C)N1` [Example 27, Di-tert-butyl 4-(4-bromophenyl)-1,4-dihydro-2,6-dimethylpyridine-3,5-dicarboxylate]: 206 to 207 °C.

The molecule `CC1=C(C(=O)OC(C)(C)C)C(c2ccccc2I)C(C(=O)OC(C)(C)C)=C(C)N1` [Example 28, Di-tert-butyl 1,4-dihydro-4-(2-iodophenyl)-2,6-dimethylpyridine-3,5-dicarboxylate] displayed a melting point of 184 to 185 °C.

Take `CCOC(=O)C1=C(C)NC(C)=C(C(=O)OCC)C1c1cccc(Cl)c1Cl` [Example 31, Diethyl 4-(2,3-dichlorophenyl)-1,4-dihydro-2,6-dimethylpyridine-3,5-dicarboxylate]: the melting point is 125 to 126 °C. On to `CC1=C(C(=O)OC(C)(C)C)C(c2cccc(Cl)c2Cl)C(C(=O)OC(C)(C)C)=C(C)N1` [Example 32, Di-tert-butyl 4-(2,3-dichlorophenyl)-I14-dihydro-2,6-dimethylpyridine-3,5-dicarboxylate], for which the melting point was in the range of 144 to 145 °C. Next, `CCOC(=O)C1=C(C)NC(C)=C(C(=O)OCC)C1c1cc(Cl)ccc1Cl` [Example 34, Diethyl 4-(2,5-dichlorophenyl)-1,4-dihydro-2,6-dimethylpyridine-3,5-dicarboxylate]: 166.5 to 167.5 °C; `CC1=C(C(=O)OC(C)(C)C)C(c2cc(Cl)ccc2Cl)C(C(=O)OC(C)(C)C)=C(C)N1` [Example 35, Di-tert-butyl 4-(2,5-dichlorophenyl)-1,4-dihydro-2,6-dimethylpyridine-3,5-dicarboxylate]: 181 to 183 °C; `CCOC(=O)C1=C(C)NC(C)=C(C(=O)OCC)C1c1c(Cl)cccc1Cl` [Example 36, Diethyl 4-(2,6-dichlorophenyl)-1,4-dihydro-2,6-dimethylpyridine-3,5-dicarboxylate]: 134 to 135 °C. The value for `CCOC(=O)C1=C(C)NC(C)=C(C(=O)OCC)C1c1cc(Cl)cc(Cl)c1` [Example 37, Diethyl 4-(3,5-dichlorophenyl)-1,4-dihydro-2,6-dimethylpyridine-3,5-dicarboxylate] was 102 to 104 °C; that for `CCOC(=O)C1=C(C)NC(C)=C(C(=O)OCC)C1c1cccc(F)c1F` [Example 38, Diethyl 4-(2,3-difluorophenyl)-1,4-dihydro-2,6-dimethylpyridine-3,5-dicarboxylate] was 161 to 162 °C. For `CC1=C(C(=O)OC(C)(C)C)C(c2cccc(F)c2F)C(C(=O)OC(C)(C)C)=C(C)N1` [Example 39, Di-tert-butyl 4-(2,3-difluorophenyl)-1,4-dihydro-2,6-dimethylpyridine-3,5-dicarboxylate], the melting point fell in the range of 192 to 194 °C. As to `C=CCOC(=O)C1=C(C)NC(C)=C(C(=O)OCC=C)C1c1ccc(Br)cc1` [Example 40, Diallyl 4-(4-bromophenyl)-1,4-dihydro-2,6-dimethylpyridine-3,5-dicarboxylate], the melting point was in the range of 130 to 131 °C. `CCOC(=O)C1=C(C)NC(C)=C(C(=O)OCC)C1c1ccc(F)c(Br)c1` [Example 41, Diethyl 4-(3-bromo-4-fluorophenyl)-1,4-dihydro-2,6-dimethylpyridine-3,5-dicarboxylate] displayed a melting point of 118 to 119 °C. The molecule `CC1=C(C(=O)OC(C)(C)C)C(c2ccc(F)c(Br)c2)C(C(=O)OC(C)(C)C)=C(C)N1` [Example 42, Di-tert-butyl 4-(3-bromo-4-fluorophenyl)-1,4-dihydro-2,6-dimethylpyridine-3,5-dicarboxylate] yielded a melting point of 171 to 172 °C.

Take `CCOC(=O)C1=C(C)NC(C)=C(C(=O)OCC)C1c1ccc(Br)cc1F` [Example 43, Diethyl 4-(4-bromo-2-fluorophenyl)-1,4-dihydro-2,6-dimethylpyridine-3,5-dicarboxylate]: the melting point was in the range of 154 to 155 °C. Consider `CC1=C(C(=O)OC(C)(C)C)C(c2ccc(Br)cc2F)C(C(=O)OC(C)(C)C)=C(C)N1` [Example 44, Di-tert-butyl 4-(4-bromo-2-fluorophenyl)-1,4-dihydro-2,6-dimethylpyridine-3,5-dicarboxylate], for which the melting point lay in the range of 187 to 188 °C. As for `COCCOC(=O)C1=C(C)NC(C)=C(C(=O)OCCOC)C1c1cccc(Br)c1` [Example 45, Bis(2-methoxyethyl) 4-(3-bromophenyl)-1,4-dihydro-2,6-dimethylpyridine-3,5-dicarboxylate], the melting point was in the range of 124.5 to 125.5 °C. The value for `COCCOC(=O)C1=C(C)NC(C)=C(C(=O)OCCOC)C1c1ccc(Br)cc1` [Example 46, Bis(2-methoxyethyl) 4-(4-bromophenyl)-1,4-dihydro-2,6-dimethylpyridine-3,5-dicarboxylate] was 116 to 117 °C; that for `CCOC(=O)C1=C(C)NC(C)=C(C(=O)OCC)C1c1cc(Br)ccc1F` [Example 47, Diethyl 4-(5-bromo-2-fluorophenyl)-1,4-dihydro-2,6-dimethylpyridine-3,5-dicarboxylate] was 118 to 119 °C; that for `CC1=C(C(=O)OC(C)(C)C)C(c2cc(Br)ccc2F)C(C(=O)OC(C)(C)C)=C(C)N1` [Example 48, Di-tert-butyl 4-(5-bromo-2-fluorophenyl)-1,4-dihydro-2,6-dimethylpyridine-3,5-dicarboxylate] was 173 to 174 °C.

For `CC1=C(C(=O)OC(C)(C)C)C(c2cccc(F)c2)C(C(=O)OC(C)(C)C)=C(C)N1` [Example 50, Di-tert-butyl 4-(3-fluorophenyl)-1,4-dihydro-2,6-dimethylpyridine-3,5-dicarboxylate], the melting point was in the range of 178 to 179 °C.

Molecule `CCOC(=O)C1=C(C)NC(C)=C(C(=O)OCC)C1c1ccc(F)cc1` [Example 51, Diethyl 4-(4-fluorophenyl)-1,4-dihydro-2,6-dimethylpyridine-3,5-dicarboxylate] returned a melting point of 150 to 151 °C. The value for `CC1=C(C(=O)OC(C)(C)C)C(c2ccc(F)cc2)C(C(=O)OC(C)(C)C)=C(C)N1` [Example 52, Di-tert-butyl 4-(4-fluorophenyl)-1,4-dihydro-2,6-dimethylpyridine-3,5-dicarboxylate] was 149 to 150 °C; that for `COCC1=C(C(=O)OC)C(c2ccc(Br)cc2)C(C(=O)OC)=C(COC)N1` [Example 53, Dimethyl 4-(4-bromophenyl)-1,4-dihydro-2,6-bis(methoxymethyl)pyridine-3,5-dicarboxylate] was 162 to 163 °C. Next, `CCOC(=O)C1=C(C)N(Cc2ccccc2)C(C)=C(C(=O)OCC)C1c1ccc(Br)cc1` [Example 54, Diethyl 1-benzyl-4-(4-bromophenyl)-1,4-dihydro-2,6-dimethylpyridine-3,5-dicarboxylate]: 168 to 169 °C. In turn, `CC1=C(C(=O)OC(C)(C)C)C(c2ccc(C)cc2C)C(C(=O)OC(C)(C)C)=C(C)N1` [Example 55, Di-tert-butyl 1,4-dihydro-2,6-dimethyl-4-(2,4-dimethylphenyl)pyridine-3,5-dicarboxylate] registered a melting point of 197 to 198 °C. Next, `CCOC(=O)C1=C(C)NC(C)=C(C(=O)OC)C1c1ccccc1Cl` (stereo not shown) [Example 56, 3-Ethyl 5-methyl 4-(2-chlorophenyl)-1,4-dihydro-2,6-dimethylpyridine-3,5-dicarboxylate]: 125 to 127 °C; `COC(=O)C1=C(C)NC(C)=C(C(C)=O)C1c1ccccc1Cl` (stereo not shown) [Example 57, Methyl 5-acetyl-4-(2-chlorophenyl)-1,4-dihydro-2,6-dimethylpyridine-3-carboxylate]: 183 to 184 °C; `CCOC(=O)C1=C(C)NC(C)=C(C(=O)OC)C1c1ccccc1Br` (stereo not shown) [Example 58, 3-Ethyl 5-methyl 4-(2-bromophenyl)-I14-dihydro-2,6-dimethylpyridine-3,5-dicarboxylate]: 134.5 to 135.5 °C.
